According to patent publication US20230181482A1, “LIPIDS FOR DELIVERY OF NUCLEIC ACID SEGMENTS” (AstraZeneca AB, priority 2021, published 2023):

How the values were obtained:
[1] = tested on: human broncho-epithelial cell line 16HBE; assay: In vitro expression of eGFP in 16HBE cells (GFP ELISA); assay type: cell-based; conditions: for eGFP in 16HBE: LNP formulation nos. 1 and 7 (N/P 3:1), 24 h, 125 ng mRNA per well, (standard error of the mean); for Ratio Lipid/MC3: ratio of eGFP expression in 16HBE to the MC3 formulation
Protocol: In vitro expression of EGFP protein from LNP formulation nos. 1 and 7 described in Example 58 was tested in the human broncho-epithelial cell line 16HBE (Sigma-Aldrich SCC150. 16HBE cells were maintained in DMEM, low glucose with GlutaMAX™+pyruvate (Gibco 21885-025) supplemented with MEM Non-Essential Amino Acids (Gibco 11140035) and 10% Heat-Inactivated Fetal Calf Serum (HI-FCS). The cells were cultured at 37° C. in a humidified atmosphere with 5% CO2. The day prior to an experiment, cells were detached from culture flasks using TrypLE™ (Gibco 12604013) and seeded in cell culture treated 96-well plates (Greiner Bio-One #655090) at a density of 20.000 cells per well. At the day of an experiment, 1 hour before incubation with LNPs, medium was removed and replaced with 95 ul DMEM including 1% HI-FCS. After 1 hour of conditioning, 5 ul of LNPs in PBS was added and mixed by a Bravo robot, resulting in a final concentration of 50-125 ng mRNA per well. Cells were then incubated for 24 h at 37° C. in a humidified atmosphere with 5% CO2. Absolute quantification of EGFP protein was done using ELISA (GFP SimpleStep ELISA kit, Abcam #ab171581). After 24 h of incubation, cells were lysed by adding 100 ul of lysis buffer to each well (Lysis buffer included in the kit, or Abcam products #ab193970 and #ab193971) Cells were then lysed by a freeze-thaw cycle in lysis buffer. Lysates were measured in appropriate dilutions according to the kit manufacturer's instructions. Results are reported as number of EGFP molecules expressed per mRNA dosed, after 24 h, calculated from the values of 125 ng mRNA per well. Results are plotted as Mean+SEM from triplicate values.
The expression of eGFP in 16HBE cytosol proves the function of the used LNP composition of eGFP mRNA in promoting gene transfection and […]. The quantification of eGFP allows to compare different LNP compositions with the MC3-based lipid composition, used as a comparator, with regard to the induction of protein expression in 16HBE to obtain the ratio of lipid to MC3. In this application, the LNP compositions differ in their ionizable lipid (IL) component. […] (see FIG. 1).

Female BALB/c mice = assay: eGFP expression in the liver at 24 hours after intravenous administration of LNP formulations to mouse (ELISA); assay type: in vivo; conditions: LNP N/P 3:1, DMPE-PEG2000
In short: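 Mice (6-8 weeks, n=4/group) received a slow IV tail-vein bolus of LNP formulation at 0.3 mg/kg. Livers were harvested 24 hours post-dose and eGFP quantified by ELISA.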

[2] = mRNA encapsulation efficiency of LNP formulations (Quant-it Ribogreen assay with Triton-X100); assay type: physicochemical; conditions: DMPE-PEG2000
In short: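 LNPs of ionizable lipid/cholesterol/DSPC/polymer-lipid (50/38.5/10/1.5 mol%, 12.5 mM total lipid) formed by microfluidic mixing with eGFP mRNA in 50 mM citrate, pH 3, at 3:1 aqueous:ethanol and N/P 3:1 or 6:1. Encapsulation efficiency measured by RiboGreen with and without Triton-X100 disruption.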

[3] = LNP particle size by dynamic light scattering (Zetasizer Nano ZS); assay type: physicochemical; conditions: DMPE-PEG2000
In short: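 eGFP mRNA in 50 mM citrate (from pH 3 buffer) was mixed microfluidically (Aq:EtOH 3:1, 12 mL/min) with ethanolic lipids, ionizable lipid/cholesterol/DSPC/polymer-conjugated lipid 50/38.5/10/1.5 mol %, 12.5 mM total, at N/P 3:1 or 6:1. Dynamic light scattering gave z-average diameter. Number-weighted distributions used refractive index 1.45.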

[4] = Table 1, LNP with eGFP mRNA, N/P ratio 3:1
[5] = Table 1, number-average particle diameter, N/P ratio 3:1
[6] = Table 1, z-average particle diameter, N/P ratio 3:1

Structure (SMILES): CCCCC/C=C\C/C=C\CCCCCCCCC(CCCCCCCC/C=C\C/C=C\CCCCC)OC(=O)CCCN(C)C [MC3, [(10Z,13Z)-1-[(9Z,12Z)-octadeca-9,12-dienyl]nonadeca-10,13-dienyl] 4-(dimethylamino)butanoate, reference compound]
- eGFP in 16HBE [1]: 0.023 (±0.001) number of protein molecules per number of dosed mRNA molecules
- Ratio Lipid/MC3 [1]: 1
- Liver eGFP protein (ng/g tissue) (Female BALB/c mice; Table 3, 0.3 mg/kg): 3091.5 ng/g tissue
- Liver eGFP protein (ng/g tissue) (Female BALB/c mice; Table 4, 0.3 mg/kg): 916.4 ng/g tissue
- Liver eGFP protein (ng/g tissue) (Female BALB/c mice; Table 5, 0.3 mg/kg): 1114.4 ng/g tissue
- Liver eGFP protein (ng/g tissue) (Female BALB/c mice; Table 6, 0.3 mg/kg): 3802.0 ng/g tissue
- % EE [2, 4]: 99%
- % EE ([2]; Table 3, N/P ratio 3:1): 98%
- % EE ([2]; Table 4, N/P ratio 3:1): 98%
- % EE ([2]; Table 5, N/P ratio 3:1): 98%
- % EE ([2]; Table 6, N/P ratio 3:1): 98%
- <d>N (nm) [3, 5]: 72 nm
- <d>Z (nm) [3, 6]: 86 nm
- <d>N (nm) ([3]; Table 3, N/P ratio 3:1): 63 nm
- <d>Z (nm) ([3]; Table 3, N/P ratio 3:1): 79 nm
- <d>N (nm) ([3]; Table 4, N/P ratio 3:1): 71 nm
- <d>Z (nm) ([3]; Table 4, N/P ratio 3:1): 88 nm
- <d>N (nm) ([3]; Table 5, N/P ratio 3:1): 66 nm
- <d>Z (nm) ([3]; Table 5, N/P ratio 3:1): 82 nm
- <d>N (nm) ([3]; Table 6, N/P ratio 3:1): 61 nm
- <d>Z (nm) ([3]; Table 6, N/P ratio 3:1): 74 nm

Structure (SMILES): CCCCCC(CCCCC)CCOC(=O)CCCCCCCC(CCCCCCCC(=O)OCCC(CCCCC)CCCCC)NC1CC2(COC2)C1 [Compound 1, Bis(3-pentyloctyl) 9-((2-oxaspiro[3.3]heptan-6-yl)amino)heptadecanedioate]
- eGFP in 16HBE [1]: 0.044 (±0.004) number of protein molecules per number of dosed mRNA molecules
- Ratio Lipid/MC3 [1]: 1.9
- % EE [2, 4]: 97%
- % EE ([2]; Table 1, LNP with eGFP mRNA, N/P ratio 6:1): 94%
- <d>N (nm) [3, 5]: 68 nm
- <d>N (nm) ([3]; Table 1, number-average particle diameter, N/P ratio 6:1): 57 nm
- <d>Z (nm) [3, 6]: 84 nm
- <d>Z (nm) ([3]; Table 1, z-average particle diameter, N/P ratio 6:1): 74 nm

Structure (SMILES): CCCCCC(CCCCC)CCOC(=O)CCCCCCCCC(CCCCCCCCC(=O)OCCC(CCCCC)CCCCC)NCC1CCCCO1 (stereo not shown) [Compound 16, bis(3-pentyloctyl) 10-(((tetrahydro-2H-pyran-2-yl)methyl)amino)nonadecanedioate]
- Liver eGFP protein (ng/g tissue) (Female BALB/c mice; Table 4, 0.3 mg/kg): 1393.4 ng/g tissue
- % EE ([2]; Table 4, N/P ratio 3:1): 91%
- <d>N (nm) ([3]; Table 4, N/P ratio 3:1): 61 nm
- <d>Z (nm) ([3]; Table 4, N/P ratio 3:1): 78 nm

Structure (SMILES): CCCCCCCC(CCCCCCC)COC(=O)CCCCCCC(CCCCCCC(=O)OCC(CCCCCCC)CCCCCCC)NC1CC2(COC2)C1 [Compound 28, Bis(2-heptylnonyl) 8-((2-oxaspiro[3.3]heptan-6-yl)amino)pentadecanedioate]
- Liver eGFP protein (ng/g tissue) (Female BALB/c mice; Table 4, 0.3 mg/kg): 9557.1 ng/g tissue
- % EE ([2]; Table 4, N/P ratio 3:1): 97%
- <d>N (nm) ([3]; Table 4, N/P ratio 3:1): 80 nm
- <d>Z (nm) ([3]; Table 4, N/P ratio 3:1): 129 nm

Structure (SMILES): CCCCCCCCC(C)OC(=O)CCCCCCC(CCCCCCC(=O)OCC(CCCCCCC)CCCCCCC)NC1CC2(COC2)C1 (stereo not shown) [Compound 29, 1-(decan-2-yl) 15-(2-heptylnonyl) 8-((2-oxaspiro[3.3]heptan-6-yl)amino)pentadecanedioate]
- Liver eGFP protein (ng/g tissue) (Female BALB/c mice; Table 4, 0.3 mg/kg): 1288.4 ng/g tissue
- % EE ([2]; Table 4, N/P ratio 3:1): 90%
- <d>N (nm) ([3]; Table 4, N/P ratio 3:1): 51 nm
- <d>Z (nm) ([3]; Table 4, N/P ratio 3:1): 71 nm

Structure (SMILES): CCCCCCCCC(CCCCCCCC)OC(=O)CCCCCCC(CCCCCCC(=O)OC(CCCCCCCC)CCCCCCCC)NC1CC2(COC2)C1 [Compound 23, di(heptadecan-9-yl) 8-((2-oxaspiro[3.3]heptan-6-yl)amino)pentadecanedioate]
- Liver eGFP protein (ng/g tissue) (Female BALB/c mice; Table 4, 0.3 mg/kg): 2318.8 ng/g tissue
- % EE ([2]; Table 4, N/P ratio 3:1): 96%
- <d>N (nm) ([3]; Table 4, N/P ratio 3:1): 45 nm
- <d>Z (nm) ([3]; Table 4, N/P ratio 3:1): 62 nm

Structure (SMILES): CCCCCCCCC(CCCCCCCC)OC(=O)CCCCCCCC(CCCCCCCC(=O)OC(C)CCCCC)NCC1CCOC1 (stereo not shown) [Compound 48, 1-(heptadecan-9-yl) 17-(heptan-2-yl) 9-(((tetrahydrofuran-3-yl)methyl)amino)heptadecanedioate]
- Liver eGFP protein (ng/g tissue) (Female BALB/c mice; Table 6, 0.3 mg/kg): 14749.9 ng/g tissue
- % EE ([2]; Table 6, N/P ratio 3:1): 90%
- <d>N (nm) ([3]; Table 6, N/P ratio 3:1): 60 nm
- <d>Z (nm) ([3]; Table 6, N/P ratio 3:1): 80 nm
